# Earlier results as cited in patent US20190365933A1, “SOLVENT-FREE GADOLINIUM CONTRAST AGENTS” (Inventure, LLC, priority 2016, published 2019).
# Where two headings read alike, the source gives them in different places.
"Conditional stability constant at pH 7.4 (log Keff) (complex of gadolinium with the named ligand, log value)","Thermodynamic stability constants pH 14 (log KGdL) (complex of gadolinium with the named ligand, pH 14, ligand entirely deprotonated, log value)",Conditional stability constant at pH 7.4 (log Keff),Thermodynamic stability constants pH 14 (log KGdL) (pH 14),Compound
17.2,24.7,,,"O=C(O)CN1CCN(CC(=O)O)CCN(CC(=O)O)CCN(CC(=O)O)CC1 [DOTA, 1,4,7,10-tetraazacyclododecane-1,4,7,10-tetraacetic acid]"
,,12.7,14.54,O=C(O)CNC(=O)CN1CCN(CC(=O)NCC(=O)O)CCN(CC(=O)NCC(=O)O)CCN(CC(=O)NCC(=O)O)CC1 [DOTA-(gly)4]
